For the data set, the system named is HPV-Ker cells. Put plainly: Viability test of HPV-Ker keratinocytes by real-time impedance monitoring (xCELLigence RTCA). The data set is classed as cell-based, human. The settings on record: for cytotoxic effect against keratinocytes / keratinocyte inhibitory activity in vitro (overall verdict): HPV-Ker; for IC50: Homo sapiens, Keratinocyte; for keratinocyte inhibitory activity in vitro (overall verdict): compared to ingenol mebutate. An excerpt:
The main risk factor of induction of AK is UV irradiation. The UVB component of sunlight damages DNA, which might cause mutations in p53 and other tumor suppressor genes. Therefore, as an in vitro model of AK, we used the HPV-Ker cell line which contains the E6 oncoprotein of the human papillomavirus, leading to the degradation of the p53 tumor suppressor [26].
Since our compounds, especially the ingenol-derivatives, are structurally very similar to ingenol mebutate (Figure 3), we were interested in whether they have any effect on the viability of keratinocytes. The HPV-Ker cell line was treated with the isolated ingol- and ingenol-type diterpenoids with a concentration range of 5 × 10^−9–5 × 10^−4 M, the viability was measured with the xCELLigence System RTCA HT (Agilent Technologies, Santa Clara, CA, USA) instrument for 72 h, and data at 24 and 48 h were used for calculations (Table 1). IC50 values were calculated based on the sigmoidal dose–response formula.
The immortalized human keratinocyte cell line (HPV-Ker) was cultured in Keratinocyte-SFM supplemented with 5 ng/mL of recombinant epidermal growth factor, […] of bovine pituitary extract, and antibiotic/antimycotic solution in a CO2 thermostat at 37 °C.
The effect of the extracts and the purified compounds on HPV-Ker cells was investigated by real-time monitoring with the xCELLigence System RTCA HT Instrument (ACEA Biosciences, San Diego, CA, USA). 8 × 10^3 HPV-Ker cells were seeded in 96-well E-plates and keratinocytes were allowed to attach to the bottom of the wells and grow for 24 h. Cells were then treated with the indicated extract or substance for another 72 h. Real-time measurements of impedance were monitored every 15 min, then data at 24 and 48 h were used for calculations. The half-maximal inhibitory concentration (IC50) values for the compounds were calculated and GraphPad Prism 9.0 was used to plot results. All experiments were performed in duplicate, in three independent repeats.

The mark [1] stands for this setting: HPV-Ker cell line, 24 h of treatment, ± SD, read-out: IC50 Value 24 h.
[2] abbreviates: HPV-Ker cell line, 48 h of treatment, ± SD, read-out: IC50 Value 48 h.
Where [3] appears, read: HPV-Ker cells, RTCA normalized CI * hours, 24 h, read-out: IC50 (24h), Figure 4.
The mark [4] stands for this setting: HPV-Ker cells, RTCA normalized CI * hours, 48 h, read-out: IC50 (48h), Figure 4.

Like-named read-outs stand apart in the source and are kept apart here.

With `C/C=C(/C)C(=O)O[C@H]1C(C)=C[C@]23C(=O)[C@@H](C=C(CO)[C@@H](O)[C@]12O)[C@H]1[C@@H](C[C@H]3C)C1(C)C` [Ingenol mebutate, reference compound], the “cytotoxic effect against keratinocytes” value is, setting by setting: (0.5 µg/mL, 24 h) “weaker, but still significant, cytotoxic effect”; (0.5 µg/mL, 48 h) “comparable to the treatment when 5 µg/mL was used for 48 h”; (5 µg/mL, 24 h) “strongest cytotoxic effect”; (5 µg/mL, 48 h) “lower cytotoxicity”. Further, the IC50 is, setting by setting: under setting [1], 0.84 ± 0.01 µM; under setting [2], 0.96 ± 0.03 µM; under setting [3], 0.844 µM; under setting [4], 0.959 µM.
`C/C=C(/C)C(=O)O[C@H]1C(C)=CC23C(=O)[C@@H](C=C(COC(C)=O)[C@@H](O)[C@]12O)[C@H]1[C@@H](C[C@H]3C)[C@@]1(C)COC(C)=O` [Compound 6, 17-acetoxyingenol 3-angelate 20-acetate]: the “keratinocyte inhibitory activity in vitro (overall verdict)” value is given as “strong keratinocyte inhibitory activity”. Besides, the IC50 under setting [1] is 0.39 ± 0.09 µM. The IC50 under setting [2] was 0.32 ± 0.05 µM.
For the compound `C/C=C(/C)C(=O)O[C@H]1C(C)=CC23C(=O)[C@@H](C=C(C)[C@@H](O)[C@]12O)[C@H]1[C@@H](C[C@H]3C)[C@@]1(C)COC(C)=O` [Compound 8, 17-acetoxy-20-deoxyingenol 3-angelate], under setting [1], the IC50 is 4.32 ± 0.92 µM.
As for `C/C=C(/C)C(=O)O[C@H]1C(C)=CC23C(=O)[C@@H](C=C(COC(C)=O)[C@@H](OC(C)=O)[C@]12O)[C@H]1[C@@H](C[C@H]3C)[C@@]1(C)COC(C)=O` [Compound 7, 17-acetoxyingenol 3 angelate 5,20-diacetate], the “keratinocyte inhibitory activity in vitro (overall verdict)” value is listed as “strong keratinocyte inhibitory activity”. In addition, the IC50 under setting [1] worked out at 0.32 ± 0.02 µM. The IC50 under setting [2] turned out to be 0.87 ± 0.07 µM. Further, under setting [3], the IC50 worked out at 0.323 µM. Under setting [4], the IC50 came to 0.873 µM.
Take `C/C=C(\C)C(=O)O[C@@H]1/C(C)=C/[C@@]23O[C@@]2(C[C@H](C)[C@@H]3OC(C)=O)C(=O)[C@H](C)[C@H](OC(C)=O)[C@@H]2[C@H]([C@@H]1O)C2(C)C` [Compound 1, Ingol 3,12-diacetate 7-tigliate]: the IC50 under setting [1] worked out at 14.2 ± 2.85 µM and the IC50 under setting [2] amounted to 1.72 ± 0.14 µM.
As for `C/C=C(\C)C(=O)O[C@@H]1/C(C)=C/[C@@]23O[C@@]2(C[C@H](C)[C@@H]3OC(C)=O)C(=O)[C@H](C)[C@H](OC(C)=O)[C@@H]2[C@H]([C@@H]1OC)C2(C)C` [Compound 2, 8-O-methyl-ingol 3,12-diacetate 7-tigliate], the IC50 amounted to 17.3 ± 1.65 µM under setting [1] and 14.5 ± 3.78 µM under setting [2].
Turning to `CO[C@H]1[C@H]2[C@@H]([C@@H](OC(C)=O)[C@@H](C)C(=O)[C@@]34C[C@H](C)[C@H](OC(C)=O)[C@]3(/C=C(\C)[C@H]1OC(=O)c1ccccc1)O4)C2(C)C` [Compound 3, 8-O-methyl-ingol 3,12-diacetate 7-benzoate], for the setting “HPV-Ker cell line, 24 h of treatment, ± SD”, the “IC50 Value 24 h” value is “inactive”. Under “HPV-Ker cell line, 48 h of treatment, ± SD”, the “IC50 Value 48 h” value was “inactive”.
Consider `C/C=C(/C)C(=O)O[C@@H]1C(C)=C[C@@H]2C(=O)C3(C=C(C)[C@H](O)[C@@]13O)[C@H](C)C[C@@H]1[C@H]2[C@]1(C)COC(C)=O` [Compound 9, 17-acetoxy-20-deoxyingenol 5-angelate], for which the 50% inhibitory concentration (IC50) under setting [1] was determined as 14.8 ± 3.83 µM and the IC50 under setting [2] worked out at 7.93 ± 1.71 µM.

The values are drawn from article PMC8231945, “Ingol and Ingenol-Type Diterpenes from Euphorbia trigona Miller with Keratinocyte Inhibitory Activity” (Plants, 2021).
